{"source": "DBAASP", "experiment_in_all_cases": "≥ marks a high value that may be exact or a test limit, other limits are often not marked, values filed in µg/mL are converted to µM", "key": {"[1]": {"test_system": "Staphylococcus aureus ATCC 29231"}, "[2]": {"test_system": "Klebsiella pneumoniae WGLW2"}, "[3]": {"test_system": "Acinetobacter baumannii ATCC 7978"}, "[4]": {"test_system": "Candida albicans ATCC 10231"}, "[5]": {"test_system": "Klebsiella aerogenes ATCC 13048"}, "[6]": {"test_system": "Batrachochytrium dendrobatidis JEL-197"}, "[7]": {"test_system": "Escherichia coli ATCC 25922"}, "[8]": {"test_system": "Escherichia coli ATCC 25726"}, "[9]": {"test_system": "Staphylococcus aureus ATCC 25923"}, "[10]": {"test_system": "Candida albicans ATCC 90028"}, "[11]": {"test_system": "Bacillus subtilis ATCC 6633"}, "[12]": {"test_system": "Pseudomonas aeruginosa ATCC 27853"}, "[13]": {"test_system": "Salmonella enterica subsp. enterica serovar Typhimurium ATCC 14028"}, "[14]": {"test_system": "Shigella dysenteriae ATCC 9752"}, "[15]": {"test_system": "Staphylococcus epidermidis ATCC 12228"}, "[16]": {"test_system": "Klebsiella pneumoniae ATCC 10031"}, "[17]": {"test_system": "Staphylococcus aureus ATCC 6538P"}, "[18]": {"test_system": "Micrococcus luteus ATCC 10240"}, "[19]": {"test_system": "Klebsiella pneumoniae"}, "[20]": {"test_system": "Pseudomonas aeruginosa"}, "[21]": {"test_system": "Acinetobacter baumannii"}, "[22]": {"test_system": "Staphylococcus aureus ATCC 43300"}, "[23]": {"test_system": "Enterococcus faecium"}, "[24]": {"test_system": "Streptococcus pneumoniae"}, "[25]": {"test_system": "Listeria monocytogenes EGD"}, "[26]": {"test_system": "Staphylococcus aureus ATCC 33591"}, "[27]": {"test_system": "Enterococcus faecium ATCC 700221"}}, "data": [{"smiles": "CC[C@H](C)[C@H](NC(=O)[C@H](CCCCN)NC(=O)[C@H](CCCCN)NC(=O)[C@@H](N)CC(C)C)C(=O)NCC(=O)N[C@@H](CCCCN)C(=O)N[C@@H](CCCCN)C(=O)N[C@H](C(=O)N[C@@H](Cc1c[nH]c2ccccc12)C(=O)N[C@@H](CCCN=C(N)N)C(=O)N[C@H](C(=O)NCC(=O)N[C@@H](Cc1c[nH]c2ccccc12)C(=O)N[C@@H](CC(N)=O)C(=O)N[C@@H](Cc1c[nH]c2ccccc12)C(=O)N[C@@H](CCCN=C(N)N)C(=O)O)C(C)C)[C@@H](C)CC", "note": "[LKKIGKKIWRVGWNWR]", "values": [{"measurement": "MIC", "setting": "[1]", "result": "≥ 61.9", "unit": "µM"}, {"measurement": "MIC", "setting": "[2]", "result": "≥ 32.3", "unit": "µM"}, {"measurement": "MIC", "setting": "[3]", "result": 16.1, "unit": "µM"}, {"measurement": "MIC", "setting": "[4]", "result": 61.9, "unit": "µM"}, {"measurement": "MIC", "setting": "[5]", "result": "≥ 61.9", "unit": "µM"}]}, {"smiles": "CC[C@H](C)[C@H](NC(=O)[C@H](CCCCN)NC(=O)CNC(=O)[C@H](Cc1ccccc1)NC(=O)[C@H](CC(C)C)NC(=O)[C@@H](N)CC(C)C)C(=O)N[C@H](C(=O)N[C@@H](CO)C(=O)N[C@@H](CCCN=C(N)N)C(=O)N[C@@H](CC(C)C)C(=O)N[C@@H](CC(C)C)C(=O)NCC(=O)N[C@@H](CC(N)=O)C(=O)O)[C@@H](C)CC", "note": "[LLFGKIISRLLGN]", "values": [{"measurement": "MIC", "setting": "[6]", "result": "≥ 250", "unit": "µM"}]}, {"smiles": "CC[C@H](C)[C@@H]1NC(=O)[C@H](C)NC(=O)[C@@H](NC(=O)[C@H](Cc2ccccc2)NC(=O)[C@@H](NC(=O)[C@H](CCCCN)NC(=O)[C@@H]2CCCN2C(=O)[C@H](CC(C)C)NC(=O)[C@H](Cc2ccccc2)NC(=O)[C@H](CCC(N)=O)NC(=O)CNC(=O)[C@H](C)NC(=O)[C@H](C)NC(=O)CNC(=O)[C@@H](NC(=O)[C@@H](NC(=O)[C@H](C)NC(=O)[C@@H]2CCCN2C(=O)[C@H](CC(C)C)NC(=O)[C@@H](N)Cc2ccccc2)[C@@H](C)CC)C(C)C)[C@@H](C)CC)CSSC[C@@H](C(=O)O)NC(=O)[C@H](CCCCN)NC(=O)[C@H](CCCCN)NC(=O)[C@H](CO)NC1=O", "note": "[FLPAIVGAAGQFLPKIFCAISKKC]", "values": [{"measurement": "MIC", "setting": "[7]", "result": 55, "unit": "µM"}, {"measurement": "MIC", "setting": "[6]", "result": "≥ 40", "unit": "µM"}]}, {"smiles": "CC[C@H](C)[C@H](NC(=O)CN)C(=O)N[C@@H](CCSC)C(=O)N[C@@H](CC(N)=O)C(=O)N[C@H](C(=O)N[C@H](C(=O)N[C@@H](CCCCN)C(=O)N[C@@H](CC(=O)O)C(=O)N[C@H](C(=O)N[C@@H](C)C(=O)N[C@H](C(=O)NCC(=O)N[C@H](C(=O)N[C@@H](C)C(=O)N[C@H](C(=O)N[C@@H](Cc1cnc[nH]1)C(=O)N[C@@H](CC(C)C)C(=O)N[C@@H](CC(C)C)C(=O)N[C@@H](CC(N)=O)C(=O)N[C@@H](CCSC)C(=O)N[C@H](C(=O)N[C@@H](CCCCN)C(=O)N[C@H]1CSSC[C@@H](C(=O)O)NC(=O)CNC(=O)[C@H]([C@@H](C)O)NC(=O)[C@H]([C@@H](C)CC)NC(=O)[C@H](CCCCN)NC1=O)C(C)C)[C@@H](C)O)C(C)C)[C@@H](C)O)C(C)C)C(C)C)[C@@H](C)O", "note": "[GIMNTVKDVATGVATHLLNMVKCKITGC]", "values": [{"measurement": "MIC", "setting": "[8]", "result": "≥ 50", "unit": "µM"}, {"measurement": "MIC", "setting": "[9]", "result": "> 50", "unit": "µM"}, {"measurement": "MIC", "setting": "[6]", "result": "≥ 100", "unit": "µM"}, {"measurement": "MIC", "setting": "[10]", "result": "≥ 100", "unit": "µM"}]}, {"smiles": "CC(=O)N[C@@H](CCCCN)C(=O)N[C@@H](C)C(=O)N[C@@H](C)C(=O)N[C@@H](CCCCN)C(=O)N[C@@H](C)C(=O)N[C@@H](C)C(=O)N[C@@H](CCCCN)C(=O)N[C@@H](CCCCN)C(=O)N[C@@H](C)C(=O)N[C@@H](C)C(=O)N[C@@H](CCCCN)C(=O)N[C@@H](C)C(=O)N[C@@H](C)C(=O)N[C@@H](Cc1c[nH]c2ccccc12)C(=O)N[C@@H](CCCCN)C(N)=O", "note": "[KAAKAAKKAAKAAWK]", "values": [{"measurement": "MIC", "setting": "[11]", "result": "≥ 130", "unit": "µM"}, {"measurement": "MIC", "setting": "[7]", "result": 130, "unit": "µM"}, {"measurement": "MIC", "setting": "[12]", "result": 130, "unit": "µM"}, {"measurement": "MIC", "setting": "[13]", "result": 130, "unit": "µM"}, {"measurement": "MIC", "setting": "[14]", "result": "≥ 130", "unit": "µM"}, {"measurement": "MIC", "setting": "[15]", "result": 130, "unit": "µM"}, {"measurement": "MIC", "setting": "[16]", "result": "≥ 130", "unit": "µM"}, {"measurement": "MIC", "setting": "[17]", "result": "≥ 130", "unit": "µM"}]}, {"smiles": "CC(C)C[C@H](NC(=O)[C@H](Cc1c[nH]c2ccccc12)NC(=O)CNC(=O)[C@H](CC(C)C)NC(=O)[C@@H](N)Cc1ccccc1)C(=O)N[C@@H](Cc1ccccc1)C(=O)N[C@@H](CCCCN)C(=O)N[C@@H](Cc1c[nH]c2ccccc12)C(=O)N[C@@H](C)C(=O)N[C@@H](CO)C(=O)N[C@@H](CCCCN)C(N)=O", "note": "[FLGWLFKWASK]", "values": [{"measurement": "MIC", "setting": "[11]", "result": 18.1, "unit": "µM"}, {"measurement": "MIC", "setting": "[18]", "result": 9.04, "unit": "µM"}, {"measurement": "MIC", "setting": "[7]", "result": 36.2, "unit": "µM"}, {"measurement": "MIC", "setting": "[12]", "result": 145, "unit": "µM"}, {"measurement": "MIC", "setting": "[13]", "result": 145, "unit": "µM"}, {"measurement": "MIC", "setting": "[14]", "result": 18.1, "unit": "µM"}, {"measurement": "MIC", "setting": "[15]", "result": 36.2, "unit": "µM"}, {"measurement": "MIC", "setting": "[16]", "result": "≥ 36.2", "unit": "µM"}, {"measurement": "MIC", "setting": "[17]", "result": 18.1, "unit": "µM"}]}, {"smiles": "CC[C@H](C)[C@H](NC(=O)[C@H](Cc1cnc[nH]1)NC(=O)CNC(=O)CN)C(=O)N[C@@H](CCCN=C(N)N)C(=O)N[C@@H](CCCN=C(N)N)C(=O)N[C@H](C(=O)N[C@H](C(=O)N[C@@H](CCCN=C(N)N)C(=O)N[C@@H](CCCCN)C(=O)N[C@H](C(=O)N[C@H](C(=O)N[C@@H](Cc1cnc[nH]1)C(=O)N[C@H](C(=O)N[C@H](C(=O)N[C@@H](CCCCN)C(=O)N[C@@H](CCCCN)C(N)=O)[C@@H](C)CC)[C@@H](C)CC)[C@@H](C)CC)[C@@H](C)CC)[C@@H](C)CC)[C@@H](C)CC", "note": "[GGHIRRIIRKIIHIIKK]", "values": [{"measurement": "MIC", "setting": "[19]", "result": 16, "unit": "µM"}, {"measurement": "MIC", "setting": "[20]", "result": "> 16", "unit": "µM"}, {"measurement": "MIC", "setting": "[7]", "result": "> 16", "unit": "µM"}, {"measurement": "MIC", "setting": "[21]", "result": 5.3, "unit": "µM"}, {"measurement": "MIC", "setting": "[22]", "result": 16, "unit": "µM"}, {"measurement": "MIC", "setting": "[23]", "result": 8, "unit": "µM"}, {"measurement": "MIC", "setting": "[24]", "result": 8, "unit": "µM"}]}, {"smiles": "CC(C)C[C@H](NC(=O)[C@H](CC(C)C)NC(=O)[C@H](CCCCN)NC(=O)[C@@H](NC(=O)[C@@H](NC(=O)[C@H](CO)NC(=O)[C@H](CCCCN)NC(=O)[C@H](Cc1ccccc1)NC(=O)[C@@H](NC(=O)[C@@H](N)CCCCN)C(C)C)C(C)C)C(C)C)C(=O)N[C@@H](CCC(=O)O)C(=O)N[C@@H](CCCCN)C(=O)N[C@H](C(=O)N[C@H](C(=O)N[C@@H](CC(C)C)C(=O)N[C@@H](CCCCN)C(=O)N[C@@H](CCCCN)C(=O)N[C@@H](Cc1ccccc1)C(=O)N[C@@H](CO)C(=O)N[C@@H](CCCCN)C(N)=O)C(C)C)[C@@H](C)O", "note": "[KVFKSVVKLLEKTVLKKFSK]", "values": [{"measurement": "MIC", "setting": "[7]", "result": 64, "unit": "µM"}, {"measurement": "MIC", "setting": "[25]", "result": "≥ 32", "unit": "µM"}, {"measurement": "MIC", "setting": "[12]", "result": 32, "unit": "µM"}, {"measurement": "MIC", "setting": "[9]", "result": 64, "unit": "µM"}]}, {"smiles": "CC[C@H](C)[C@H](NC(=O)[C@H](CCCCN)NC(=O)[C@H](CCCCN)NC(=O)[C@H](CC(C)C)NC(=O)[C@@H](NC(=O)[C@H](CCCCN)NC(=O)[C@H](CCCCN)NC(=O)[C@@H](NC(=O)[C@@H](NC(=O)[C@H](CC(=O)O)NC(=O)[C@H](Cc1ccccc1)NC(=O)[C@H](CC(C)C)NC(=O)CN)C(C)C)[C@@H](C)CC)C(C)C)C(=O)NCC(=O)NCC(=O)N[C@@H](CC(C)C)C(N)=O", "note": "[GLFDVIKKVLKKIGGL]", "values": [{"measurement": "MIC", "setting": "[7]", "result": 6.3, "unit": "µM"}, {"measurement": "MIC", "setting": "[12]", "result": 50, "unit": "µM"}, {"measurement": "MIC", "setting": "[26]", "result": 12.5, "unit": "µM"}, {"measurement": "MIC", "setting": "[27]", "result": 6.3, "unit": "µM"}]}]}
